For one data set, the system named is S. Typhimurium 0911R. Description: microbe, parasite or virus in culture. It counts as cell-based, Salmonella Typhimurium. The note with it: for R/I/S: Table S1(A), 0911R, CLSI criteria; for MIC: Salmonella enterica, TYPHIMURIUM
As to the method: (§1) The minimal inhibitory concentration (MIC) of each test compound against the individual bacterial strains was determined by the broth microdilution method following the guidelines recommended by the Clinical and Laboratory Standards Institute (CLSI) ([27]).

Data set [1] has as its system S. Typhimurium ATCC 14028. Description: MIC assay (broth microdilution). It counts as cell-based, Salmonella Typhimurium. As to conditions: for MIC: Salmonella enterica; for R/I/S: ATCC 14028, CLSI criteria. The procedure:
as §1

A further data set relates to S. Typhimurium NL08.10. Briefly: MIC assay (broth microdilution). In kind it is cell-based, Salmonella Typhimurium. The note with it: Table S1(A); for R/I/S: NL08.10, CLSI criteria; for MIC: Salmonella enterica, TYPHIMURIUM, NL08.10, read-out: MIC. The procedure:
as §1

Data set [2] relates to intracellular S. Typhimurium in RAW264.7 macrophages. Description: microbe, parasite or virus in culture. In kind it is cell-based, Salmonella enterica serovar Typhimurium. As to conditions: for survival of intracellular Salmonella in macrophages, antibiotic alone: RAW264.7, 24 h. The procedure:
(§2) Overnight cultures of RFP-expressing S. Typhimurium were prepared for infection by 1:100 dilution in fresh LB broth and incubation for 2 h at 37°C. The bacteria were then collected by centrifugation at 6,000 × g for 3 min and suspended in phosphate-buffered saline (PBS; pH 7.2) to an optical density of 0.6 at 600 nm, which was equivalent to 5 × 10^8 CFU/mL. RAW264.7 macrophages were seeded in 96-well black clear-bottom plates (Greiner) and incubated for 20 h followed by infection with RFP-expressing S. Typhimurium at a multiplicity of infection (MOI) of 50 for 1 h. […] Afterward, the cells were washed and stained with CellTracker Green (Thermo Fisher Scientific) for 30 min in serum-free DMEM followed by fixation in 3.7% formaldehyde (Sigma-Aldrich) for 20 min and stained with 0.2 mg/L DAPI (4′,6-diamidino-2-phenylindole; AAT Bioquest) for 30 min. Images of individual wells were captured and analyzed using a high-content imaging system (ImageXpress Micro 4; Molecular Devices). The CC50 and 50% effective concentration (EC50) values against intracellular bacteria of each compound were determined using CalcuSyn software (Biosoft).

In a further data set the test system is S. Typhimurium SB10. Description: MIC assay (broth microdilution). In kind it is cell-based, Salmonella Typhimurium. As to conditions: Table S1(B); for MIC: Salmonella enterica, TYPHIMURIUM, SB10, read-out: MIC; for R/I/S: SB10, CLSI criteria. As to the method:
as §1

Another data set deals with S. Typhimurium SA10. Description: MIC assay (broth microdilution). In kind it is cell-based, Salmonella Typhimurium. The note with it: Table S1(B); for MIC: Salmonella enterica, TYPHIMURIUM, SA10; for R/I/S: SA10, CLSI criteria. The procedure: as §1
Data set [3] can be described thus: HCA cytotoxicity toward infected macrophages (nuclear staining). It counts as cell-based, murine. The note with it: mouse, RAW264.7 macrophages infected with S. Typhimurium, infected RAW264.7 cells, read-out: 50% cytotoxic concentration (CC50) toward macrophages. The procedure:
as §2

Data set [4] relates to ROS levels in Salmonella-infected RAW264.7 cells. Description: Analysis of ROS in macrophages (H2DCFDA). In kind it is cell-based, murine. As to conditions: 1 h; SW14 at concentrations up to 8 μM. As to the method: RAW264.7 macrophages were seeded in 96-well black plates and infected by S. Typhimurium ATCC 14028 at an MOI of 25 for 1 h. After infection, the cells were washed, exposed to 100 mg/L gentamicin for 1 h, washed with warm Krebs-Ringer phosphate buffer (KRP buffer; 120 mM NaCl, 5 mM KCl, 1.7 mM KH2PO4, 8.3 mM Na2HPO4, 10 mM glucose, 1 mM CaCl2, 1.5 mM MgCl2, pH 7.3) and stained with H2DCFDA at 37°C with 5% CO2 for 45 min. The cells were then washed with KRP buffer and treated with SW14 or PMA at the desired concentrations in KRP buffer with 10% FBS. Fluorescence signals at 488/525 nm (excitation/emission) were measured using a SpectraMax M5 Microplate Reader (Molecular Devices).

Where [5] appears, read: Table S1(A), ATCC 14028, read-out: MIC.
Setting [6] is: Table S2, CAMH medium, read-out: MIC.
The mark [7] stands for this setting: Table S2, LB medium, read-out: MIC.
[8] abbreviates: Table S2, LPM medium, read-out: MIC.

Values after ≈ are worked out from the molar mass of the structure shown. Read-outs that look alike come from different tables or passages of the source.

Turning to `CN(C)[C@@H]1C(O)=C(C(N)=O)C(=O)[C@@]2(O)C(O)=C3C(=O)c4c(O)cccc4[C@@](C)(O)[C@H]3C[C@@H]12` [Tetracycline], the R/I/S result in the data set on S. Typhimurium 0911R is “R”; in data set [1] (Table S1(A)), “I”; in the data set with S. Typhimurium NL08.10, “R”. Besides, the MIC in data set [1] (setting [5]) came out at 8 µg/mL (≈ 18 µM).

With `CC1(C)S[C@@H]2[C@H](NC(=O)[C@H](N)c3ccccc3)C(=O)N2[C@H]1C(=O)O` [Ampicillin], the MIC in the data set on S. Typhimurium 0911R was greater than 64 µg/mL; in data set [1] (setting [5]), 16 µg/mL (≈ 45.8 µM); in data set [1] (setting [6]) it was 4 µg/mL (≈ 11.4 µM); in data set [1] (setting [7]), 4 µg/mL (≈ 11.4 µM); in data set [1] (setting [8]), 1 µg/mL (≈ 2.86 µM); with S. Typhimurium NL08.10 it was greater than 64 µg/mL. For the same compound, the R/I/S entry is on record as “R” in the data set with S. Typhimurium 0911R, “I” in data set [1] (Table S1(A)) and “R” with S. Typhimurium NL08.10.

In the case of `C=CC1=C(C(=O)O)N2C(=O)[C@@H](NC(=O)/C(=N\OCC(=O)O)c3csc(N)n3)[C@H]2SC1` [cefixime], the “survival of intracellular Salmonella in macrophages, antibiotic alone” value in data set [2] (HCA) is “inhibited the survival of intracellular Salmonella in macrophages in a dose-dependent manner”.

Consider `Cn1cnc(N)c2ncnc1-2` [3-MA, 3-methyladenine], for which, in data set [2] (3-MA 10 mM, infected RAW264.7), the “relative number of intracellular bacteria” value is reported as “increased significantly”.

Take `[H]/N=C(/N)N[C@H]1[C@H](O)[C@@H](O)[C@H](O[C@@H]2O[C@@H](C)[C@](O)(C=O)[C@H]2O[C@@H]2O[C@@H](CO)[C@H](O)[C@@H](O)[C@@H]2NC)[C@@H](N/C(N)=N\[H])[C@@H]1O` [Streptomycin]: the MIC is greater than 64 µg/mL in the data set with S. Typhimurium 0911R, 32 µg/mL (≈ 55 µM) in data set [1] (setting [5]) and greater than 64 µg/mL in the data set with S. Typhimurium NL08.10.

With `O=C(O)c1cn(C2CC2)c2cc(N3CCNCC3)c(F)cc2c1=O` [Ciprofloxacin, ciprofloxacin], in data set [2] (HCA), the “survival of intracellular Salmonella in macrophages, antibiotic alone” value is on record as “inhibited the survival of intracellular Salmonella in macrophages in a dose-dependent manner”.

As to `CNC(C)C1CCC(N)C(OC2C(N)CC(N)C(OC3OCC(C)(O)C(NC)C3O)C2O)O1` (stereo not drawn) [Gentamicin, gentamicin], the R/I/S result (with S. Typhimurium 0911R; in the data set with S. Typhimurium SB10; with S. Typhimurium SA10; in data set [1] (Table S1(A)); in data set [1] (Table S1(B)); in the data set with S. Typhimurium NL08.10) was “S” throughout. Further, the MIC in the data set on S. Typhimurium SB10 was determined as 1 µg/mL (≈ 2.09 µM); against S. Typhimurium SA10 it was 0.5 µg/mL (≈ 1.05 µM); in data set [1] (setting [5]) it was 2 µg/mL (≈ 4.19 µM); in data set [1] (Table S1(B), ATCC 14028, read-out: MIC), 2 µg/mL (≈ 4.19 µM); with S. Typhimurium NL08.10, 2 µg/mL (≈ 4.19 µM).

For `CC1COc2c(N3CCN(C)CC3)c(F)cc3c(=O)c(C(=O)O)cn1c23` (stereo not drawn) [Ofloxacin], the MIC in the data set on S. Typhimurium SB10 was 8 µg/mL (≈ 22.1 µM); in the data set on S. Typhimurium SA10, 8 µg/mL (≈ 22.1 µM); in data set [1], less than 0.125 µg/mL. The figures for the R/I/S result (in the data set with S. Typhimurium SB10; with S. Typhimurium SA10; in data set [1] (Table S1(B))) were “R”, “R” and “S”, respectively.

Turning to `CN1CCN(C2=Nc3ccccc3Oc3ccc(Cl)cc32)CC1` [Loxapine, loxapine], the CC50 at 24 h in data set [3] turned out to be 88.2 µM. The “selectivity index (SI; CC50/EC50)” value in data set [2] (CC50 RAW264.7 / EC50 intracellular Salmonella) is 16.3. In addition, in data set [2] (Salmonella enterica, RFP-expressing S. Typhimurium in RAW264.7, 24 h, with gentamicin 20 mg/L, HCA, read-out: 50% effective concentration (EC50) against intracellular Salmonella), the EC50 stood at 5.4 µM.

As for `O=C(N[C@H](CO)[C@H](O)c1ccc([N+](=O)[O-])cc1)C(Cl)Cl` [Chloramphenicol], the R/I/S result in the data set with S. Typhimurium 0911R was “R”; in data set [1] (Table S1(A)) it was “I”; with S. Typhimurium NL08.10, “R”. Besides, the results for the MIC (in data set [1] (setting [5]); in the data set with S. Typhimurium NL08.10) were 16 µg/mL (≈ 49.5 µM) and 32 µg/mL (≈ 99 µM), respectively.

Turning to `CCCCCCCCCCCCCC(=O)O[C@@H]1[C@@H](C)[C@@]2(O)[C@@H](C=C(CO)C[C@]3(O)C(=O)C(C)=C[C@@H]23)[C@@H]2C(C)(C)[C@]12OC(C)=O` [PMA, phorbol 12-myristate 13-acetate], the “ROS level (H2DCFDA fluorescence signal) in infected macrophages” value in data set [4] is “significantly elevated”.

For `CO[C@H]1/C=C/O[C@@]2(C)Oc3c(C)c(O)c4c(O)c(c(/C=N/N5CCN(C)CC5)c(O)c4c3C2=O)NC(=O)/C(C)=C\C=C\[C@H](C)[C@H](O)[C@@H](C)[C@@H](O)[C@@H](C)[C@H](OC(C)=O)[C@@H]1C` [Rifampicin], the MIC is 16 µg/mL (≈ 19.4 µM) in data set [1] (setting [6]), 16 µg/mL (≈ 19.4 µM) in data set [1] (setting [7]) and 4 µg/mL (≈ 4.86 µM) in data set [1] (setting [8]).

Consider `CN[C@H](CC(C)C)C(=O)N[C@H]1C(=O)N[C@@H](CC(N)=O)C(=O)N[C@H]2C(=O)N[C@H]3C(=O)N[C@H](C(=O)N[C@H](C(=O)O)c4cc(O)cc(O)c4-c4cc3ccc4O)[C@H](O)c3ccc(c(Cl)c3)Oc3cc2cc(c3O[C@@H]2O[C@H](CO)[C@@H](O)[C@H](O)[C@H]2O[C@H]2C[C@](C)(N)[C@H](O)[C@H](C)O2)Oc2ccc(cc2Cl)[C@H]1O` [Vancomycin], for which the MIC in data set [1] (Table S2, CAMH medium) is 2050 µg/mL (≈ 1410 µM); in data set [1] (Table S2, LB medium), 512 µg/mL (≈ 353 µM); in data set [1] (Table S2, LPM medium), 128 µg/mL (≈ 88.3 µM).
